Laboratory results from ChEMBL document CHEMBL1153219, “Evaluation of human neutrophil elastase inhibitory effect of iridoid glycosides from Hedyotis diffusa” (Bioorg Med Chem Lett, 2010).

Target: T1, Neutrophil elastase (Homo sapiens, UniProt P08246)
T1 sequence (P08246 whole entry): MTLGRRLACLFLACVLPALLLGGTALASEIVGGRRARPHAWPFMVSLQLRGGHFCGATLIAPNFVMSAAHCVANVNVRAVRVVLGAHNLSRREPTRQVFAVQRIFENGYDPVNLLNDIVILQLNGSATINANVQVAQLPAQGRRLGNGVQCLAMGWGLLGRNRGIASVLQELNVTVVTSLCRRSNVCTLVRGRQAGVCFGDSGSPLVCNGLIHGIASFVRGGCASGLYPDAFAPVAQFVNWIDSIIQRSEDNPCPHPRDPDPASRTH
Test: Inhibition of human neutrophil elastase

## O=C(O[C@@H]1Cc2c(O)cc(O)cc2O[C@@H]1c1cc(O)c(O)c(O)c1)c1cc(O)c(O)c(O)c1 [EPIGALOCATECHIN GALLATE]
  IC50: 12.8 µM
